The numbers were not newly measured in patent US8784886B2, “Coating capsules with active pharmaceutical ingredients” (GlaxoSmithKline, LLC, priority 2006, dated 2014), which cites them from elsewhere.

The conditions of the series: gelatin capsules, stored and packaged under the prescribed conditions of temperature and humidity.

For the compound `CC1=C(/C=C/C(C)=C/C=C/C(C)=C/CO)C(C)(C)CCC1` [USP vitamin A, vitamin A], the “time without significant loss of potency of the encapsulated contents” value is on record as ≥ 3 years.
